# Several values for one entry are separate records, joined by “and”; a condition that tells them apart may be missing. Equal entries are not always repeated.
# Tests used:
# KYSE450 cells = experiment: MTT assay, KYSE450; type: cell-based, human; conditions: for IC50: Homo sapiens, KYSE-450, MTT, 48 h, KYSE450, n = 5, read-out: IC50 48 h KYSE450; for absorbance 490 nm, single well / mean absorbance 490 nm (row G) / mean absorbance 490 nm minus background (row H): KYSE450
# Text: (§1) The human cancer cells (H1650, H1975, KYSE70, KYSE410 and KYSE450) were purchased from the Type Culture Collection of the Chinese Academy of Sciences (Shanghai, China). The human immortalized normal esophageal epithelial cell line SHEE was donated by Dr. Enmin Li from the Laboratory of Tumor Pathology (Shantou University Medical College, Shantou, Guangdong, China). Drug-resistant cells (H1650TR, H1975OR, KYSE70TR, KYSE410TR and KYSE450TR) were induced by China-US (Henan) Hormel Cancer Institute. The cellswere cultured in RPMI-1640 complete growth medium containing 100 U/mL penicillin-streptomycin and 10% FBS. Based on the above medium formula, 100 nm/L paclitaxel was added in taxol-resistant cells, 100 nm/L gefitinib was added in gefitinib-resistant cells. The cells were incubated at 37 °C in an atmosphere containing 5% of CO2. The compounds were dissolved in DMSO to make a 50 mM stock solution and were diluted to the concentration of working solutions with complete growth medium before administration.
# (§2) Cells were seeded in 96-well plates with 2,200–2,500 cells/well in100 μL. One day after seeding, test compounds with the concentration between 0 and 50 μM were added with 0.1% DMSO as control. Five multiple wells for each concentration. After 48 h, MTT was added and incubated in the plate for 1–4 h in the incubator. The absorbance at 490 nm was measured using a microplate reader (Thermo).
# H1650 cells = experiment: MTT assay for cell proliferation and cytotoxicity, H1650; type: cell-based; conditions: Homo sapiens, NCI-H1650, 48 h, H1650, n = 5
# Text: as §1, §2
# H1975 cells = experiment: MTT assay for cell proliferation and cytotoxicity, H1975; type: cell-based, human; conditions: Homo sapiens, NCI-H1975, 48 h, MTT, 48 h, H1975, n = 5; read-out: IC50 48 h H1975
# Text: as §1
# as §2, with “After 48 h, MTT was added and incubated in the plate for 1–4 h in the incubator.” left out
# SHEE cells = experiment: MTT assay, normal esophageal epithelial cell line SHEE; type: cell-based; conditions: Homo sapiens, 48 h, n = 5
# Text: as §1, §2
# KYSE70 cells = experiment: MTT assay, KYSE70; type: cell-based, human; conditions: for IC50: Homo sapiens, KYSE-70, MTT, 48 h, KYSE70, n = 5
# Text: as §1, §2
# KYSE410 cells = experiment: MTT assay, KYSE410; type: cell-based, human; conditions: for IC50: Homo sapiens, KYSE-410, MTT, 48 h, KYSE410, n = 5, read-out: IC50 48 h KYSE410
# Text: as §1, §2
# [1] = concentration 12.5 (unit not given)
# [2] = concentration 25 (unit not given)
# [3] = concentration 50 (unit not given)
# [4] = concentration 100 (unit not given)
compound,measurement,setting,value
Brc1ccccc1Cn1cc(-c2cccc(Nc3ncnc4cc5c(cc34)OCCOCCOCCO5)c2)nn1 [compound 3s],IC50,KYSE450 cells,23.4 ± 1.13 µM
same,IC50,H1650 cells,17.1 ± 1.64 µM
same,IC50,H1975 cells,> 50 µM
same,IC50,SHEE cells,14.2 ± 0.94 µM
same,melting point,,161 to 164 °C
same,IC50,KYSE70 cells,9.35 ± 0.89 µM
same,IC50,KYSE410 cells,19.2 ± 1.22 µM
Brc1ccc(-n2cc(-c3cccc(Nc4ncnc5cc6c(cc45)OCCOCCOCCO6)c3)nn2)cc1 [compound 3j],IC50,KYSE450 cells,12.5 ± 1.22 µM
same,IC50,H1650 cells,27.6 ± 1.85 µM
same,IC50,H1975 cells,5.02 ± 0.37 µM
same,IC50,SHEE cells,> 50 µM
same,melting point,,158 to 161 °C
same,IC50,KYSE70 cells,50 µM
same,IC50,KYSE410 cells,> 50 µM
Fc1ccccc1Cn1cc(-c2cccc(Nc3ncnc4cc5c(cc34)OCCOCCOCCO5)c2)nn1 [compound 3m],IC50,KYSE450 cells,> 50 µM
same,IC50,H1650 cells,> 50 µM
same,IC50,H1975 cells,47.3 ± 2.01 µM
same,IC50,SHEE cells,> 50 µM
same,melting point,,118 to 121 °C
same,IC50,KYSE70 cells,> 50 µM
same,IC50,KYSE410 cells,> 50 µM
Fc1cccc(-n2cc(-c3cccc(Nc4ncnc5cc6c(cc45)OCCOCCOCCO6)c3)nn2)c1 [compound 3a],IC50,KYSE450 cells,7.24 ± 0.65 µM
same,IC50,H1650 cells,15.6 ± 1.02 µM
same,IC50,H1975 cells,9.87 ± 0.88 µM
same,IC50,SHEE cells,12.1 ± 0.97 µM
same,melting point,,123 to 126 °C
same,IC50,KYSE70 cells,10.2 ± 0.88 µM
same,IC50,KYSE410 cells,48.6 ± 2.16 µM
Cc1ccc(Cn2cc(-c3cccc(Nc4ncnc5cc6c(cc45)OCCOCCOCCO6)c3)nn2)cc1 [compound 3o],IC50,KYSE450 cells,4.81 ± 0.36 µM
same,IC50,H1650 cells,5.6 ± 0.29 µM
same,IC50,H1975 cells,8.7 ± 0.66 µM
same,IC50,SHEE cells,22.4 ± 1.26 µM
same,melting point,,124 to 127 °C
same,IC50,KYSE70 cells,14.6 ± 0.96 µM
same,IC50,KYSE410 cells,> 50 µM
c1ccc(Cn2cc(-c3cccc(Nc4ncnc5cc6c(cc45)OCCOCCOCCO6)c3)nn2)cc1 [compound 3r],IC50,KYSE450 cells,28.1 ± 1.18 µM
same,"absorbance 490 nm, single well",KYSE450 cells; [1],0.6476 and 0.598 and 0.6398 and 0.6662
same,mean absorbance 490 nm (row G),KYSE450 cells; [1],0.6379
same,mean absorbance 490 nm minus background (row H),KYSE450 cells; [1],0.586
same,"absorbance 490 nm, single well",KYSE450 cells; [2],0.4195 and 0.4416 and 0.4375 and 0.4182
same,mean absorbance 490 nm (row G),KYSE450 cells; [2],0.4292
same,mean absorbance 490 nm minus background (row H),KYSE450 cells; [2],0.3773
same,"absorbance 490 nm, single well",KYSE450 cells; [3],0.1593 and 0.152 and 0.1434
same,mean absorbance 490 nm (row G),KYSE450 cells; [3],0.1516
same,mean absorbance 490 nm minus background (row H),KYSE450 cells; [3],0.09971
same,"absorbance 490 nm, single well",KYSE450 cells; [4],0.127 and 0.1396 and 0.1367
same,mean absorbance 490 nm (row G),KYSE450 cells; [4],0.1344
same,mean absorbance 490 nm minus background (row H),KYSE450 cells; [4],0.08257
same,IC50,H1650 cells,19.6 ± 1.72 µM
same,IC50,H1975 cells,19.2 ± 1.59 µM
same,IC50,SHEE cells,21 ± 1.11 µM
same,melting point,,146 to 149 °C
same,IC50,KYSE70 cells,7.32 ± 0.62 µM
same,blank-corrected absorbance 490 nm relative to control (fraction),"KYSE70 cells; KYSE70, concentration 12.5",0.2722
same,inhibition (1 minus fraction of control),"KYSE70 cells; KYSE70, concentration 12.5",0.7278
same,blank-corrected absorbance 490 nm relative to control (fraction),"KYSE70 cells; KYSE70, concentration 25",0.1457
same,inhibition (1 minus fraction of control),"KYSE70 cells; KYSE70, concentration 25",0.8543
same,blank-corrected absorbance 490 nm relative to control (fraction),"KYSE70 cells; KYSE70, concentration 50",0.1803
same,inhibition (1 minus fraction of control),"KYSE70 cells; KYSE70, concentration 50",0.8197
same,blank-corrected absorbance 490 nm relative to control (fraction),"KYSE70 cells; KYSE70, concentration 100",0.1267
same,inhibition (1 minus fraction of control),"KYSE70 cells; KYSE70, concentration 100",0.8733
same,IC50,KYSE410 cells,9.23 ± 0.97 µM
same,blank-corrected absorbance 490 nm relative to control (fraction),"KYSE410 cells; KYSE410, concentration 12.5",0.3227
same,inhibition (1 minus fraction of control),"KYSE410 cells; KYSE410, concentration 12.5",0.6773
same,blank-corrected absorbance 490 nm relative to control (fraction),"KYSE410 cells; KYSE410, concentration 25",0.3216
same,inhibition (1 minus fraction of control),"KYSE410 cells; KYSE410, concentration 25",0.6784
same,blank-corrected absorbance 490 nm relative to control (fraction),"KYSE410 cells; KYSE410, concentration 50",0.3502
same,inhibition (1 minus fraction of control),"KYSE410 cells; KYSE410, concentration 50",0.6498
same,blank-corrected absorbance 490 nm relative to control (fraction),"KYSE410 cells; KYSE410, concentration 100",0.1592
same,inhibition (1 minus fraction of control),"KYSE410 cells; KYSE410, concentration 100",0.8408
Brc1cc(Br)cc(Cn2cc(-c3cccc(Nc4ncnc5cc6c(cc45)OCCOCCOCCO6)c3)nn2)c1 [compound 3u],IC50,KYSE450 cells,> 50 µM
same,IC50,H1650 cells,> 50 µM
same,IC50,H1975 cells,> 50 µM
same,IC50,SHEE cells,> 50 µM
same,melting point,,151 to 154 °C
same,IC50,KYSE70 cells,> 50 µM
same,IC50,KYSE410 cells,> 50 µM

# — paper PMC9709406 (Frontiers in Pharmacology, 2022)
